Assay results taken from patent US12371454B2, “Cyclic peptide compound having Kras inhibitory action” (priority 2019, dated 2025).
Starred links: 1 amine or outer side, 2 acyl side, 3 side chain; linkers in the order of their positions; H or OH if unused. Positions of bridges follow the written chain, without caps; N, C: chain ends. Non-standard residues stand in square brackets, D forms with d. Residues, ends and D or L forms follow the SMILES beside them. *: point of attachment. hPhe(3,5-F2-4-CF3) = N[C@@H](CCc1cc(F)c(C(F)(F)F)c(F)c1)C(=O)O; hPhe(3-Cl-4-CF3) = N[C@@H](CCc1ccc(C(F)(F)F)c(Cl)c1)C(=O)O; Thiomorpholino(1,1-dioxo) = O=S1(=O)CCN(*)CC1; NMeAbu(4,4,4-F3) = CN[C@@H](CC(F)(F)F)C(=O)O; NMePhe(4-Cl) = CN[C@@H](Cc1ccc(Cl)cc1)C(=O)O; NMePhe(4-Me) = CN[C@@H](Cc1ccc(C)cc1)C(=O)O; X56 = O=C([C@H](Cc1cc(F)ccc1F)N[*:1])[*:2]; X8 = O=C([C@H](Cc1cc(I)ccc1F)N[*:1])[*:2]; NMeGly(cPent) = CN[C@H](C(=O)O)C1CCCC1; Pro(4,4-F2) = O=C(O)[C@@H]1CC(F)(F)CN1; NMeY = CN[C@@H](Cc1ccc(O)cc1)C(=O)O; NMeCha = CN[C@@H](CC1CCCCC1)C(=O)O; NEtLeu = CCN[C@@H](CC(C)C)C(=O)O; NMeChg = CN[C@H](C(=O)O)C1CCCCC1; NMeI = CC[C@H](C)[C@H](NC)C(=O)O; NMeD = CN[C@@H](CC(=O)O)C(=O)O; NMeL = CN[C@@H](CC(C)C)C(=O)O; NMeAbu = CC[C@H](NC)C(=O)O; Morpholide = C1CN(*)CCO1; NMeA = CN[C@@H](C)C(=O)O; NMeAib = CNC(C)(C)C(=O)O; Nle = CCCC[C@H](N)C(=O)O; Piperidide = C1CCN(*)CC1; Pyrrolidide = C1CCN(*)C1; Ac5c = NC1(C(=O)O)CCCC1; Aze = O=C(O)[C@@H]1CCN1; Sar = CNCC(=O)O

These compounds were tested against T1, Kras and SOS1 (biotin-tagged human Kras loaded with GDP, His-tagged human SOS1) (Homo sapiens, UniProt P01116, G12D) (assay: Protein-protein interaction inhibition between Kras and SOS1 (KrasGl2D-SOS PPI) using AlphaScreen). Details: AlphaScreen; biotin-tagged human Kras loaded with GDP, His-tagged human SOS1; read-out: KRAS G12D-SOS PPI IC50.
T1 construct: made in house; host or cells: E. coli (stated for Kras only)
T1 sequence (P01116 1-188 isoform P01116-2 G12D): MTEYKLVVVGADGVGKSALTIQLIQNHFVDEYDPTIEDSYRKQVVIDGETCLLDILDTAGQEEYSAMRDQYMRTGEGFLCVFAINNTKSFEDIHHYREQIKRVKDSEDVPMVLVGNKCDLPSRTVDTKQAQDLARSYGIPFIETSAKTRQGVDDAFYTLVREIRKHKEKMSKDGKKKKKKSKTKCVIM
Assay type: binding
Procedure, shortened: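 Binding between SOS1 and Kras is detected as bead-proximity luminescence: illuminate Ni-conjugated donors (680 nm), collect 520-620 nm emission from streptavidin-conjugated acceptors; Kras carries biotin and GDP loaded after purification, SOS1 carries a His tag.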
In the case of CC[C@H](C)[C@@H]1NC(=O)[C@H](CC(C)C)N(C)C(=O)C[C@@H](C(=O)N2CCS(=O)(=O)CC2)N(C)C(=O)[C@H](C2CCCCC2)N(C)C(=O)C2(CCCC2)NC(=O)[C@@H]2CCCN2C(=O)[C@H](CCc2ccc(C(F)(F)F)c(Cl)c2)NC(=O)CN(C)C(=O)[C@H](CC2CCCCC2)N(C)C(=O)CN(C)C(=O)CN(C)C1=O [Compound 1263] ([NMeL]I[Sar][Sar][NMeCha][Sar][hPhe(3-Cl-4-CF3)]P[Ac5c][NMeChg][NMeD]-{Thiomorpholino(1,1-dioxo)}; lactam N-11), the IC50 is reported as 2.7 nM.
In the case of CCCC[C@@H]1NC(=O)[C@H](Cc2cc(F)ccc2F)NC(=O)CN(C)C(=O)[C@H](Cc2ccc(OC)cc2)N(C)C(=O)[C@@H]2CCN2C(=O)[C@H](C)N(C)C(=O)[C@H]([C@@H](C)CC)NC(=O)[C@H](CC)N(C)C(=O)C[C@@H](C(=O)N2CCCCC2)N(C)C(=O)[C@H](CC(C)C)NC(=O)C(C)(C)N(C)C1=O [Compound 1268] ([NMeAbu]I[NMeA][Aze][NMeY](Me)[Sar][X56][Nle][NMeAib]L[NMeD]-Piperidide; lactam N-11), the IC50 is reported as 19 nM.
With CC[C@H](C)[C@@H]1NC(=O)[C@H](CC(C)C)N(C)C(=O)C[C@@H](C(=O)N2CCCC2)N(C)C(=O)[C@H](C2CCCC2)N(C)C(=O)C2(CCCC2)NC(=O)[C@@H]2CC(F)(F)CN2C(=O)[C@H](CCc2ccc(C(F)(F)F)c(Cl)c2)NC(=O)CN(C)C(=O)[C@H](CC2CCCCC2)N(C)C(=O)CN(C)C(=O)CN(C)C1=O [Compound 1270] ([NMeL]I[Sar][Sar][NMeCha][Sar][hPhe(3-Cl-4-CF3)][Pro(4,4-F2)][Ac5c][NMeGly(cPent)][NMeD]-Pyrrolidide; lactam N-11) the IC50 was 0.61 nM.
CC[C@H](C)[C@@H]1NC(=O)[C@H](CC(C)C)N(C)C(=O)C[C@@H](C(=O)N2CCCCC2)NC(=O)[C@H](C2CCCCC2)N(C)C(=O)C2(CCCC2)NC(=O)[C@@H]2CCCN2C(=O)[C@H](CCc2ccc(C(F)(F)F)c(Cl)c2)NC(=O)CN(C)C(=O)[C@H](CC2CCCCC2)N(C)C(=O)CN(C)C(=O)CN(C)C1=O [Compound 1274] ([NMeL]I[Sar][Sar][NMeCha][Sar][hPhe(3-Cl-4-CF3)]P[Ac5c][NMeChg]D-Piperidide; lactam N-11) was tested, and the IC50 was 3.8 nM.
CC[C@H](C)[C@@H]1NC(=O)[C@H](CC(C)C)N(C)C(=O)C[C@@H](C(=O)N2CCOCC2)NC(=O)[C@H]([C@@H](C)CC)N(C)C(=O)C2(CCCC2)NC(=O)[C@@H]2CCCN2C(=O)[C@H](CCc2ccc(C(F)(F)F)c(Cl)c2)NC(=O)CN(C)C(=O)[C@H](CC2CCCCC2)N(C)C(=O)CN(C)C(=O)CN(C)C1=O [Compound 1277] ([NMeL]I[Sar][Sar][NMeCha][Sar][hPhe(3-Cl-4-CF3)]P[Ac5c][NMeI]D-Morpholide; lactam N-11) was tested, and the IC50 was 6.7 nM.
CC[C@H](C)[C@@H]1NC(=O)[C@H](CC(C)C)N(C)C(=O)C[C@@H](C(=O)N2CCS(=O)(=O)CC2)NC(=O)[C@H]([C@@H](C)CC)N(C)C(=O)C2(CCCC2)NC(=O)[C@@H]2CCCN2C(=O)[C@H](CCc2ccc(C(F)(F)F)c(Cl)c2)NC(=O)CN(C)C(=O)[C@H](CC2CCCCC2)N(C)C(=O)CN(C)C(=O)CN(C)C1=O [Compound 1279] ([NMeL]I[Sar][Sar][NMeCha][Sar][hPhe(3-Cl-4-CF3)]P[Ac5c][NMeI]D-{Thiomorpholino(1,1-dioxo)}; lactam N-11) was tested, and the IC50 was 16 nM.
Work on CC[C@H](C)[C@@H]1NC(=O)[C@H](CC(F)(F)F)N(C)C(=O)C[C@@H](C(=O)N2CCCC2)N(C)C(=O)[C@H](C2CCCCC2)N(C)C(=O)C2(CCCC2)NC(=O)[C@@H]2CC(F)(F)CN2C(=O)[C@H](CCc2cc(F)c(C(F)(F)F)c(F)c2)NC(=O)CN(C)C(=O)[C@H](CC2CCCCC2)N(C)C(=O)CN(C)C(=O)CN(C)C1=O [Compound 1281] ([NMeAbu(4,4,4-F3)]I[Sar][Sar][NMeCha][Sar][hPhe(3,5-F2-4-CF3)][Pro(4,4-F2)][Ac5c][NMeChg][NMeD]-Pyrrolidide; lactam N-11) yielded an IC50 of 0.42 nM.
CC[C@H](C)[C@@H]1NC(=O)[C@H](CC(C)C)N(CC)C(=O)C[C@@H](C(=O)N(C)C)N(C)C(=O)[C@H](C2CCCC2)N(C)C(=O)C2(CCCC2)NC(=O)[C@@H]2CCCN2C(=O)[C@H](CCc2ccc(C(F)(F)F)c(Cl)c2)NC(=O)CN(C)C(=O)[C@H](Cc2ccc(C)cc2)N(C)C(=O)[C@@H]2CCN2C(=O)[C@H](C)NC1=O [Compound 1282] ([NEtLeu]IA[Aze][NMePhe(4-Me)][Sar][hPhe(3-Cl-4-CF3)]P[Ac5c][NMeGly(cPent)][NMeD]-NMe2; lactam N-11) showed an IC50 of 0.81 nM.
CCCC[C@@H]1NC(=O)[C@H](Cc2cc(I)ccc2F)NC(=O)CN(C)C(=O)[C@H](Cc2ccc(Cl)cc2)N(C)C(=O)CN(C)C(=O)CN(C)C(=O)[C@H]([C@@H](C)CC)NC(=O)[C@H](CC(C)C)N(C)C(=O)C[C@@H](C(=O)N2CCCCC2)N(C)C(=O)[C@H](CC(C)C)NC(=O)C(C)(C)N(C)C1=O [Compound 1286] ([NMeL]I[Sar][Sar][NMePhe(4-Cl)][Sar][X8][Nle][NMeAib]L[NMeD]-Piperidide; lactam N-11) gave an IC50 of 24 nM.
